Laboratory results reported in PMC10266688 (PLOS ONE, 2023).
pIC50: −log10 of the molar value. “And” between values parts separate entries of the source, which are not always exact repeats. Equal values may be shown once.

What was measured:
[1] = tested on: SKOV3 cells; assay: MTT cytotoxicity assay, SKOV3 cells, 72 h; format: cell-based; details: Homo sapiens, SK-OV-3; 72 h treatment
[2] = tested on: HeLa cells; assay: MTT cytotoxicity assay, HeLa cells, 72 h; format: cell-based; details: Homo sapiens, 72 h treatment
[3] = tested on: TOV21G and ES2 cells; assay: Annexin V apoptosis assay; details: TOV21G and ES2, 12 h
[4] = molecular target: T1, 42kDa cellular protein (RPN13) (Homo sapiens, UniProt Q16186); assay: Competition for RA190B binding in HeLa cell lysate; details: HeLa lysate pre-treated with compound (5 μM) 45 min 4°C, then RA190B (20 μM)
T1 construct: endogenous in cells; host or cells: HeLa cell lysate
T1 sequence (Q16186 2-407): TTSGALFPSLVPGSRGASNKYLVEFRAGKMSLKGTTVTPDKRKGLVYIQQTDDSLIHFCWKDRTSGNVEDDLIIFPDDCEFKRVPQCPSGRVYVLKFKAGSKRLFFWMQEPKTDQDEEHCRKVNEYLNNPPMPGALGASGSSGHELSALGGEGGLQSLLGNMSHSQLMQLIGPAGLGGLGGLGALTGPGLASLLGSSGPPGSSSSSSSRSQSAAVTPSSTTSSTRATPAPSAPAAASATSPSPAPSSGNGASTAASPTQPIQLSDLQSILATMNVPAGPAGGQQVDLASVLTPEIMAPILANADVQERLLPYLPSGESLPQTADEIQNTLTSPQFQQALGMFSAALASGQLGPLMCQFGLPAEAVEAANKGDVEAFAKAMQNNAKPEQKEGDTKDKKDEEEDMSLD
Description: NEM (1 mM) used as positive control.

[5] = Repeat dosing toxicity study: hematologic parameters; details: female CD1 mice, Up284 20 mg/kg, Bortezomib 1 mg/kg
[6] = tested on: proteasome (4UbFL reporter); assay: 4UbFL reporter in ES2-4UbFL tumor and leg muscle of nude mice; format: in vivo, mouse; details: single IP dose Up284 20mg/kg or bortezomib 0.75 mg/kg, 4 h and 24 h
Description: A-C) Female nude mice were inoculated IP with ES2-luc cells, a human ovarian cancer line expressing luciferase. […] The IP tumor tissue and electroporated normal muscle tissue, being spatially distinct, were identified with separate regions of interest (ROI) after simultaneous imaging with IVIS.
Briefly mice were inoculated IP with ES2 cells stably expressing 4UbFL. After 48 h, the mice were injected with luciferin, imaged and then randomized into 3 groups (n = 5/group). Next, leg muscle of each mouse was electroporated with 4UbFL plasmid (considered as normal tissue). After 48 h (i.e. day 4) the mice were re-imaged and basal bioluminescence (0 h) was separately measured in the leg muscle and peritoneal ROIs.

[7] = tested on: TC1-OVA cells; assay: Antigen presentation (H-2Kb/[…]) by TC1-OVA cells, flow cytometry; format: cell-based, mouse; details: 0.25 μM, 12 h
[8] = tested on: HMW polyUb proteins in ES2 cells; assay: Western blot for polyubiquitinated proteins; details: by 12 h
[9] = tested on: proteasome (4UbFL reporter); assay: 4UbFL reporter assay in ES2 cells; format: cell-based, human; details: 4 h
Description: Sub-confluent cultures of cells were transfected with 4UbFL plasmid using TransIT 2020 reagent (Mirus Bio). Cells were seeded at 10,000 cells/well in 96-well plates 48 h post transfection, and incubated with compounds or vehicle (DMSO) at the doses and for the times indicated. Luciferase activity in cell lysate was determined with a luciferase assay kit (Promega) according to the manufacturer’s instructions. Bioluminescence was measured using a Glomax Multidetection system (Promega).
Two days later, luciferin was injected IP and the baseline enzymic activity of luciferase in the transduced muscle tissue was visualized as bioluminescence within this region of interest (ROI) using an IVIS imager. […]. After 4h, 24h and 48h the mice were again injected with luciferin, imaged and bioluminescence was quantified (Fig 5B). […] A) ES2 cells stably transduced with the 4UbFL reporter plasmid were treated with compounds at indicated doses for 4 h. The cells were then washed, lysed and their luminescence measured by a luminometer after addition of luciferin. B) Female CD1 mice electroporated with 4UbFL plasmid in their leg muscle. After 48 h, the mice were injected with luciferin, imaged by IVIS for their basal bioluminescence and randomized into two groups of five. […]. D) Up284 tissue distribution. […].

competition for RA190B binding to the 42KDa cellular protein [4]	Compound	pIC50 [1]	pIC50 [2]	also measured
	N#Cc1ccc(/C=C2/C(=O)/C(=C/c3ccc(C#N)cc3)C23CCN(C(=O)c2ccccc2)CC3)cc1 [Up288]	6.41	6.55	
	N#Cc1ccc(/C=C2/C(=O)/C(=C/c3ccc(C#N)cc3)C23CCNC3)cc1 [Up302]	6.77	7.10	
	N#Cc1ccc(/C=C2/C(=O)/C(=C/c3ccc(C#N)cc3)C23CCN(C(=O)C(F)(F)F)CC3)cc1 [Up290]	6.54	6.82	
	N.N.[Cl][Pt][Cl] [cisplatin, reference compound]			Annexin-V positive cells, single agent [3]: minimal impact
	CCCC(CCC)C(=O)N1CCC2(CC1)/C(=C\c1ccc(C#N)cc1)C(=O)/C2=C/c1ccc(C#N)cc1 [Up291]	6.38	6.60	
competed	C=CC(=O)N1CCC2(CC1)/C(=C\c1ccc(C#N)cc1)C(=O)/C2=C/c1ccc(C#N)cc1 [Up285]	7.22	7.60	
competed	Cl.N[C@@H](Cc1ccccc1)C(=O)N1C/C(=C/c2ccc(Cl)c(Cl)c2)C(=O)/C(=C\c2ccc(Cl)c(Cl)c2)C1 [RA190, reference compound]			accumulation of HMW polyUb proteins [8]: profound accumulation; stabilization of 4UbFL reporter (fold increase in luminescence) [9]: dose-dependent stabilization; MHC class I antigen presentation (SIINFEKL on H-2Kb) [7]: enhance MHC class I presentation
	C=CC(=O)N1CCC2(C1)/C(=C\c1ccc(C#N)cc1)C(=O)/C2=C/c1ccc(C#N)cc1 (centres unmarked) [Up306]	6.92	7.30	

Compound	competition for RA190B binding to the 42KDa cellular protein [4]	pIC50 [1]	pIC50 [2]	also measured
CC(C)C[C@H](NC(=O)[C@H](Cc1ccccc1)NC(=O)c1cnccn1)B(O)O [bortezomib]	did not compete			MPV ([5]; group Mean): 5.70 fL; MPV ([5]; individual mice): 5.70 fL and 5.60 fL and 5.80 fL; 4UbFL bioluminescence signal in muscle tissue vs tumor [6]: similarly enhanced the bioluminescence signal; MHC class I antigen presentation (SIINFEKL on H-2Kb) [7]: did not
